In brackets after ≈: the same amount, converted by molar mass. Read-outs that look alike come from different tables or passages of the source.
Columns and labels:
in vitro = experiment: in vitro
Excerpt: (§1) In Vitro Anti-Cancer Test
(§2) The in vitro anti-cancer test was primarily used to detect the effect of a candidate drug on cancer cell proliferation. The working principle involved therein is the ability of viable cells to shift alamarBlue (AbD Serotec, UK) from its originally non-fluorescent oxidized state (non-fluorescent, blue) to a reduced form (fluorescent, red) having fluorescence via metabolic reaction. According to the fluorescent data result generated by the alamarBlue reagent thus obtained, the proliferation of the viable cells and cell activity can be quantified for detection.
(§3) In the in vitro anti-cancer tests, a candidate drug was tested at 5 different concentrations of 0.01, 0.1, 1, 10, and 100 μg/ml, and six human cancer cell lines and a normal human cell line were used (see Table 5).

[1] = tested on: Human breast adenocarcinoma cell MCF7; experiment: cells; settings: Homo sapiens; for IC50: MCF7, read-out: IC50 (50% inhibition concentration); for CC50: MCF7, read-out: LC50 (50% lethal concentration)
Excerpt: as §1, §2, §3

[2] = tested on: Human colon adenocarcinoma cell HT-29; experiment: cells; settings: for IC50: HT-29, read-out: IC50 (50% inhibition concentration); for CC50: HT-29, read-out: LC50 (50% lethal concentration)
Excerpt: as §1, §2, §3

[3] = tested on: Human hepatocellular carcinoma cell HepG2; experiment: cells; settings: for IC50: HepG2, read-out: IC50 (50% inhibition concentration); for CC50: HepG2, read-out: LC50 (50% lethal concentration)
Excerpt: as §1, §2, §3

[4] = tested on: Human histocytic lymphoma cell U937; experiment: cells; settings: for CC50: U-937, read-out: LC50 (50% lethal concentration)
Excerpt: as §1, §2, §3

[5] = tested on: Human lung carcinoma cell A549; experiment: cells; settings: for CC50: A549, read-out: LC50 (50% lethal concentration)
Excerpt: as §1, §2, §3

[6] = tested on: Human promyelocytic leukemia cell HL-60; experiment: cells; settings: for CC50: HL-60, read-out: LC50 (50% lethal concentration)
Excerpt: as §1, §2, §3

[7] = tested on: Human umbilical venal epithelial cell (HUVEC); experiment: cells; settings: Homo sapiens, HUVEC, read-out: IC50 (50% inhibition concentration)
Excerpt: as §1, §2, §3

[8] = U-937, read-out: IC50 (50% inhibition concentration)
[9] = A549, read-out: IC50 (50% inhibition concentration)
[10] = HL-60, read-out: IC50 (50% inhibition concentration)

SMILES | CC50 (in vitro) [µg/mL] | IC50 [1] [µg/mL] | CC50 [1] [µg/mL] | IC50 [2] [µg/mL] | CC50 [2] [µg/mL] | IC50 [3] [µg/mL] | CC50 [3] [µg/mL] | IC50 [4, 8] [µg/mL] | CC50 [4] [µg/mL] | IC50 [5, 9] [µg/mL] | CC50 [5] [µg/mL] | IC50 [6, 10] [µg/mL] | CC50 [6] [µg/mL] | IC50 [7] [µg/mL] | IC50 ([4]; U-937, read-out: IC50 (50% inhibition concentration), U937) [µg/mL] | IC50 ([5]; A549, read-out: IC50 (50% inhibition concentration), A549) [µg/mL] | IC50 ([6]; HL-60, read-out: IC50 (50% inhibition concentration), HL-60) [µg/mL]
CC(C)=CCC/C(C)=C/Cc1c(O)c(CC=C(C)C)c2c(c1O)C(=O)C1=CC3CC4C(C)(C)O[C@](CC=C(C)C)(C3=O)[C@@]14O2 (stereo in doubt) [Gh-4301, desoxygambogenin] | 1.3 (≈ 2.16 µM) | 19 (≈ 31.6 µM) | 56 (≈ 93.2 µM) | 13 (≈ 21.6 µM) | 42 (≈ 69.9 µM) | 12 (≈ 20 µM) | 51 (≈ 84.9 µM) | 11 (≈ 18.3 µM) | > 100 | 0.51 (≈ 0.849 µM) | 6.2 (≈ 10.3 µM) | 3.5 (≈ 5.83 µM) | > 100 | 0.29 (≈ 0.483 µM) | – | – | –
CC(C)=CCC[C@]1(C)C=Cc2c(O)c3c(c(CC=C(C)C)c2O1)O[C@]12C(=C[C@@H]4CC1C(C)(C)O[C@]2(C/C=C(/CO)C(=O)O)C4=O)C3=O [Gh-1601-A, 30-hydroxygambogic acid] | 5.4 (≈ 8.38 µM) | – | – | – | – | – | – | – | – | – | – | – | 3 (≈ 4.65 µM) | – | 0.09 (≈ 0.14 µM) | – | –
CC(C)=CCC[C@@]1(C)C=Cc2c(O)c3c(c(CC=C(C)C)c2O1)O[C@]12C(=C[C@@H]4CC1C(C)(C)O[C@]2(C/C=C(/CO)C(=O)O)C4=O)C3=O [Gh-1602, 30-hydroxyepigambogic acid] | 0.94 (≈ 1.46 µM) | – | 4 (≈ 6.2 µM) | – | – | – | – | – | – | – | – | – | – | – | – | 0.4 (≈ 0.62 µM) | 1 (≈ 1.55 µM)
CC(C)=CCC[C@]1(C)C=Cc2c(O)c3c(c(CC=C(C)C)c2O1)O[C@]12C(=C[C@@H]4CC1C(C)(C)O[C@]2(C/C=C(\C)C(=O)O)C4=O)C3=O [Gh-1641, isogambogic acid] | 1.3 (≈ 2.07 µM) | 1.7 (≈ 2.7 µM) | 33 (≈ 52.5 µM) | 1.4 (≈ 2.23 µM) | 4.4 (≈ 7 µM) | 0.86 (≈ 1.37 µM) | 4.5 (≈ 7.16 µM) | 9.4 (≈ 15 µM) | 36 (≈ 57.3 µM) | 0.47 (≈ 0.748 µM) | 3 (≈ 4.77 µM) | 8 (≈ 12.7 µM) | 32 (≈ 50.9 µM) | 0.18 (≈ 0.286 µM) | – | – | –
CC(C)=CCC[C@@]1(C)C=Cc2c(O)c3c(c(CC=C(C)C)c2O1)O[C@]12C(=C[C@@H]4CC1C(C)(C)O[C@]2(C/C=C(\C)C(=O)O)C4=O)C3=O [Gh-1642, epiisogambogic acid] | 1.3 (≈ 2.07 µM) | 2.4 (≈ 3.82 µM) | 29 (≈ 46.1 µM) | 1.9 (≈ 3.02 µM) | 4.8 (≈ 7.63 µM) | 1.1 (≈ 1.75 µM) | 5.3 (≈ 8.43 µM) | 8.8 (≈ 14 µM) | 33 (≈ 52.5 µM) | 0.51 (≈ 0.811 µM) | 2.8 (≈ 4.45 µM) | 6 (≈ 9.54 µM) | 35 (≈ 55.7 µM) | 0.18 (≈ 0.286 µM) | – | – | –
CC(C)=CCc1c2c(c(O)c3c1O[C@]14C(=C[C@@H]5CC1C(C)(C)O[C@]4(C/C=C(\C)C=O)C5=O)C3=O)C=CC(C)(C)O2 [Gh-2501, isomorellin] | 1.8 (≈ 3.3 µM) | 1.3 (≈ 2.39 µM) | 3.7 (≈ 6.79 µM) | 2.1 (≈ 3.86 µM) | 4 (≈ 7.34 µM) | 2.2 (≈ 4.04 µM) | 4.5 (≈ 8.26 µM) | 0.9 (≈ 1.65 µM) | 3.1 (≈ 5.69 µM) | 0.61 (≈ 1.12 µM) | 2.1 (≈ 3.86 µM) | 1 (≈ 1.84 µM) | 4 (≈ 7.34 µM) | 0.26 (≈ 0.477 µM) | – | – | –
CC(C)=CCC/C(C)=C/Cc1c(O)c(CC=C(C)C)c2c(c1O)C(=O)C1=C[C@@H]3CC4C(C)(C)O[C@](C/C=C(/C)C(=O)O)(C3=O)[C@@]14O2 [Gh-2505, gambogenic acid] | 2.3 (≈ 3.65 µM) | 1.9 (≈ 3.01 µM) | 19 (≈ 30.1 µM) | 2.1 (≈ 3.33 µM) | 4.4 (≈ 6.98 µM) | 2.1 (≈ 3.33 µM) | 6.5 (≈ 10.3 µM) | 1.1 (≈ 1.74 µM) | 3.7 (≈ 5.87 µM) | 0.62 (≈ 0.983 µM) | 12 (≈ 19 µM) | 0.75 (≈ 1.19 µM) | 7.2 (≈ 11.4 µM) | 0.28 (≈ 0.444 µM) | – | – | –
C=C(C)[C@@H]1CC[C@@]2(C)CC1c1c(O)c3c(c(CC=C(C)C)c1O2)O[C@]12C(=C[C@@H]4CC1C(C)(C)O[C@]2(/C=C/C(C)C(=O)O)C4=O)C3=O (stereo partly drawn) [Gh-2507, 3-butenoic acid, 2-methyl-4-[(1R,3aS,5S,9S,10R,13S,16aS)-3a,4,5,7,10,11,12,13-octahydro-8-hydroxy-3,3,13-trimethyl-15-(3-methyl-2-butenyl)-10-(1-methylethenyl)-7,18-dioxo-1,5:9,13-dimethano-1H,3H,9H-furo[3.4-g]oxocino[3.2-b]xanthen-1-yl],(3E)-] | 21 (≈ 33.4 µM) | 0.19 (≈ 0.302 µM) | 2.2 (≈ 3.5 µM) | 1.6 (≈ 2.54 µM) | 8.6 (≈ 13.7 µM) | 1.7 (≈ 2.7 µM) | 7.1 (≈ 11.3 µM) | 0.45 (≈ 0.716 µM) | 2.7 (≈ 4.29 µM) | 0.13 (≈ 0.207 µM) | 0.53 (≈ 0.843 µM) | 0.2 (≈ 0.318 µM) | 5.3 (≈ 8.43 µM) | 0.41 (≈ 0.652 µM) | – | – | –
C=C(C)C1CC[C@]2(C)C[C@H]1c1c(O)c3c(c(CC=C(C)C)c1O2)O[C@]12C(=C[C@@H]4CC1C(C)(C)O[C@]2(/C=C/C(C)C(=O)O)C4=O)C3=O (stereo partly drawn) [Gh-2508, 3-butenoic acid, 2-methyl-4-[(1R,3aS,5S,9R,10S,13R,16aS)-3a,4,5,7,10,11,12,13-octahydro-8-hydroxy-3,3,13-trimethyl-15-(3-methyl-2-butenyl)-10-(1-methylethenyl)-7,18-dioxo-1,5:9,13-dimethano-1H,3H,9H-furo[3.4-g]oxocino[3.2-b]xanthen-1-yl]-,(3E)-] | 5.4 (≈ 8.59 µM) | 0.087 (≈ 0.138 µM) | 1.7 (≈ 2.7 µM) | 1.8 (≈ 2.86 µM) | 5.5 (≈ 8.75 µM) | 1.9 (≈ 3.02 µM) | 5.9 (≈ 9.38 µM) | 0.28 (≈ 0.445 µM) | 2.2 (≈ 3.5 µM) | 0.16 (≈ 0.254 µM) | 0.46 (≈ 0.732 µM) | 0.28 (≈ 0.445 µM) | 6.6 (≈ 10.5 µM) | 0.52 (≈ 0.827 µM) | – | – | –
C=C(C)[C@@H]1CC[C@@]2(C)CC1c1c(O)c3c(c(CC=C(C)C)c1O2)O[C@]12C(=C[C@@H]4CC1C(C)(C)O[C@]2(C/C=C(/C)C(=O)O)C4=O)C3=O [Gh-2603-1, 2-butenoic acid, 2-methyl-4-[(1R,3aS,5S,9S,10R,13S,16aS)-3a,4,5,7,10,11,12,13-octahydro-8-hydroxy-3,3,13-trimethyl-15-(3-methyl-2-butenyl)-10-(1-methylethenyl)-7,18-dioxo-1,5:9,13-dimethano-1H,3H,9H-furo[3.4-g]oxocino[3.2-b]xanthen-1-yl]-,(2Z)-] | 1.7 (≈ 2.7 µM) | – | – | – | – | 1 (≈ 1.59 µM) | – | – | – | – | – | 1 (≈ 1.59 µM) | – | – | – | – | –
C=C(C)C1CC[C@]2(C)C[C@H]1c1c(O)c3c(c(CC=C(C)C)c1O2)O[C@]12C(=C[C@@H]4CC1C(C)(C)OC2(C/C=C(/C)C(=O)O)C4=O)C3=O (stereo partly shown) [Gh-2603-2, gambogellic acid] | 1.7 (≈ 2.7 µM) | – | – | – | – | – | – | – | – | 0.2 (≈ 0.318 µM) | – | – | – | – | – | – | –
CC(C)=CCC[C@]1(C)C=Cc2c(O)c3c(c(CC=C(C)C)c2O1)O[C@]12C(=CC4CC1C(C)(C)O[C@]2(C/C=C(/C)C(=O)O)C4=O)C3=O [Gh-2605, gambogic acid] | 1.6 (≈ 2.54 µM) | 4.4 (≈ 7 µM) | 5.9 (≈ 9.38 µM) | 0.18 (≈ 0.286 µM) | 0.61 (≈ 0.97 µM) | 0.23 (≈ 0.366 µM) | 3.5 (≈ 5.57 µM) | 0.76 (≈ 1.21 µM) | 2.9 (≈ 4.61 µM) | 0.12 (≈ 0.191 µM) | 0.37 (≈ 0.588 µM) | 0.17 (≈ 0.27 µM) | 2.9 (≈ 4.61 µM) | 0.098 (≈ 0.156 µM) | – | – | –
